Reference: US20230143604A1, “QW DOSING OF GIP RECEPTOR AGONIST PEPTIDE COMPOUNDS AND USES THEREOF” (TAKEDA PHARMACEUTICAL COMPANY LIMITED, priority 2020, published 2023)
Starred links: 1 amine or outer side, 2 acyl side, 3 side chain; linkers in the order of their positions; H or OH if unused. Non-standard residues stand in square brackets, D forms with d. Residues, ends and D or L forms follow the SMILES beside them. Groups on a side chain read outwards from the residue. *: point of attachment. C20 diacid = O=C(O)CCCCCCCCCCCCCCCCCCC(=O)*; C18 diacid = O=C(O)CCCCCCCCCCCCCCCCC(=O)*; C17 diacid = O=C(O)CCCCCCCCCCCCCCCC(=O)*; γGlu = O=C(O)[C@H](CCC(=O)[*:2])N[*:1]; NMeY = CN[C@@H](Cc1ccc(O)cc1)C(=O)O; AEEA = NCCOCCOCC(=O)O; Aib = CC(C)(N)C(=O)O

Test: physchem
Outline: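 3 mg of peptide treated with 100 μL portions of 200 mM phosphate buffer pH 7.4, sonicating/vortexing up to 1 min, with further buffer added until fully dissolved. Solubility then quantified by HPLC.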

[1] = pH 7.4, aqueous buffer, pH 7.4 Phosphate Buffer - Solubility, 200 mM Phosphate buffer pH 7.4
[2] = pH 7.4, solubility in phosphate buffer at pH 7.4, 200 mM phosphate buffer pH 7.4

**Q.** With `CC[C@H](C)[C@H](NC(=O)[C@H](Cc1ccccc1)NC(=O)[C@@H](NC(=O)CNC(=O)[C@H](CCC(=O)O)NC(=O)C(C)(C)NC(=O)[C@H](Cc1ccc(O)cc1)NC)[C@@H](C)O)C(=O)N[C@@H](CO)C(=O)N[C@@H](CC(=O)O)C(=O)N[C@@H](Cc1ccc(O)cc1)C(=O)N[C@@H](CO)C(=O)N[C@H](C(=O)NC(C)(C)C(=O)N[C@@H](CC(C)C)C(=O)N[C@@H](CC(=O)O)C(=O)N[C@@H](CCCNC(=N)N)C(=O)NC(C)(C)C(=O)N[C@@H](C)C(=O)N[C@@H](CCC(N)=O)C(=O)NC(C)(C)C(=O)N[C@@H](CCCCNC(=O)COCCOCCNC(=O)COCCOCCNC(=O)CC[C@H](NC(=O)CC[C@H](NC(=O)CCCCCCCCCCCCCCCCCCC(=O)O)C(=O)O)C(=O)O)C(=O)N[C@@H](Cc1ccccc1)C(=O)N[C@H](C(=O)N[C@@H](CC(N)=O)C(=O)N[C@@H](Cc1c[nH]c2ccccc12)C(=O)N[C@@H](CC(C)C)C(=O)N[C@@H](CC(C)C)C(=O)N[C@@H](C)C(=O)N[C@@H](CCC(N)=O)C(=O)N[C@@H](CCCNC(=N)N)C(=O)NCC(=O)O)C(C)C)[C@@H](C)CC` [Compound 159] (H-[NMeY][Aib]EGTFISDYSI[Aib]LDR[Aib]AQ[Aib]K([AEEA-AEEA-γGlu-γGlu-C20 diacid])FVNWLLAQRG-OH) as the compound, how does the solubility (pH 7.4) read?
**A.** ≥ 15 mg/mL

**Q.** And the solubility (pH 7.4, aqueous buffer)?
**A.** ≥ 30 mg/mL

**Q.** Which results are given for `CC[C@H](C)[C@H](NC(=O)[C@H](CO)NC(=O)[C@H](Cc1ccc(O)cc1)NC(=O)[C@H](CC(=O)O)NC(=O)[C@H](CO)NC(=O)[C@@H](NC(=O)[C@H](Cc1ccccc1)NC(=O)[C@@H](NC(=O)CNC(=O)[C@H](CCC(=O)O)NC(=O)C(C)(C)NC(=O)[C@H](Cc1ccc(O)cc1)NC)[C@@H](C)O)[C@@H](C)CC)C(=O)N[C@@H](C)C(=O)N[C@@H](CC(C)C)C(=O)N[C@@H](CC(=O)O)C(=O)N[C@@H](CCCNC(=N)N)C(=O)N[C@@H](CCCCNC(=O)COCCOCCNC(=O)COCCOCCNC(=O)CC[C@H](NC(=O)CCCCCCCCCCCCCCCCC(=O)O)C(=O)O)C(=O)N[C@@H](C)C(=O)N[C@@H](CCC(N)=O)C(=O)NC(C)(C)C(=O)N[C@@H](CC(=O)O)C(=O)N[C@@H](Cc1ccccc1)C(=O)N[C@H](C(=O)N[C@@H](CC(N)=O)C(=O)N[C@@H](Cc1c[nH]c2ccccc12)C(=O)N[C@@H](CC(C)C)C(=O)N[C@@H](CC(C)C)C(=O)N[C@@H](C)C(=O)N[C@@H](CCC(N)=O)C(=O)N[C@@H](CCCNC(=N)N)C(=O)N1CCC[C@H]1C(=O)N[C@@H](CO)C(=O)N[C@@H](CO)C(=O)NCC(=O)N[C@@H](C)C(=O)N1CCC[C@H]1C(=O)N1CCC[C@H]1C(=O)N1CCC[C@H]1C(=O)N[C@@H](CO)C(N)=O)C(C)C` [Compound 23] (H-[NMeY][Aib]EGTFISDYSIALDRK([AEEA-AEEA-γGlu-C18 diacid])AQ[Aib]DFVNWLLAQRPSSGAPPPS-NH2)?
**A.** solubility [1]: ≥ 30 mg/mL; solubility [2]: ≥ 15 mg/mL

**Q.** Which results are given for `CC[C@H](C)[C@H](NC(=O)[C@H](Cc1ccccc1)NC(=O)[C@@H](NC(=O)CNC(=O)[C@H](CCC(=O)O)NC(=O)C(C)(C)NC(=O)[C@H](Cc1ccc(O)cc1)NC)[C@@H](C)O)C(=O)N[C@@H](CO)C(=O)N[C@@H](CC(=O)O)C(=O)N[C@@H](Cc1ccc(O)cc1)C(=O)N[C@@H](CO)C(=O)N[C@H](C(=O)NC(C)(C)C(=O)N[C@@H](CCCCNC(=O)COCCOCCNC(=O)COCCOCCNC(=O)CC[C@H](NC(=O)CC[C@H](NC(=O)CCCCCCCCCCCCCCCC(=O)O)C(=O)O)C(=O)O)C(=O)N[C@@H](CC(=O)O)C(=O)N[C@@H](CCCNC(=N)N)C(=O)NC(C)(C)C(=O)N[C@@H](C)C(=O)N[C@@H](CCC(N)=O)C(=O)NC(C)(C)C(=O)N[C@@H](CC(N)=O)C(=O)N[C@@H](Cc1ccccc1)C(=O)N[C@H](C(=O)N[C@@H](CC(N)=O)C(=O)N[C@@H](Cc1c[nH]c2ccccc12)C(=O)N[C@@H](CC(C)C)C(=O)N[C@@H](CC(C)C)C(=O)N[C@@H](C)C(=O)N[C@@H](CCC(N)=O)C(=O)N[C@@H](CCCNC(=N)N)C(=O)N1CCC[C@H]1C(=O)N[C@@H](CO)C(=O)N[C@@H](CO)C(=O)NCC(=O)N[C@@H](C)C(=O)N1CCC[C@H]1C(=O)N1CCC[C@H]1C(=O)N1CCC[C@H]1C(=O)N[C@@H](CO)C(N)=O)C(C)C)[C@@H](C)CC` [Compound 14] (H-[NMeY][Aib]EGTFISDYSI[Aib]K([AEEA-AEEA-γGlu-γGlu-C17 diacid])DR[Aib]AQ[Aib]NFVNWLLAQRPSSGAPPPS-NH2)?
**A.** solubility [1]: ≥ 30 mg/mL; solubility [2]: ≥ 15 mg/mL

**Q.** With `CC[C@H](C)[C@H](NC(=O)[C@H](Cc1ccccc1)NC(=O)[C@@H](NC(=O)CNC(=O)[C@H](CCC(=O)O)NC(=O)C(C)(C)NC(=O)[C@H](Cc1ccc(O)cc1)NC)[C@@H](C)O)C(=O)N[C@@H](CO)C(=O)N[C@@H](CC(=O)O)C(=O)N[C@@H](Cc1ccc(O)cc1)C(=O)N[C@@H](CO)C(=O)N[C@H](C(=O)NC(C)(C)C(=O)N[C@@H](CC(C)C)C(=O)N[C@@H](CC(=O)O)C(=O)N[C@@H](CCCNC(=N)N)C(=O)NC(C)(C)C(=O)N[C@@H](C)C(=O)N[C@@H](CCC(N)=O)C(=O)NC(C)(C)C(=O)N[C@@H](CCCCNC(=O)COCCOCCNC(=O)COCCOCCNC(=O)CC[C@H](NC(=O)CC[C@H](NC(=O)CCCCCCCCCCCCCCCCC(=O)O)C(=O)O)C(=O)O)C(=O)N[C@@H](Cc1ccccc1)C(=O)N[C@H](C(=O)N[C@@H](CC(N)=O)C(=O)N[C@@H](Cc1c[nH]c2ccccc12)C(=O)N[C@@H](CC(C)C)C(=O)N[C@@H](CC(C)C)C(=O)N[C@@H](C)C(=O)N[C@@H](CCC(N)=O)C(=O)N[C@@H](CO)C(=O)N1CCC[C@H]1C(=O)N[C@@H](CO)C(=O)N[C@@H](CO)C(=O)NCC(=O)N[C@@H](C)C(=O)N1CCC[C@H]1C(=O)N1CCC[C@H]1C(=O)N1CCC[C@H]1C(=O)N[C@@H](CO)C(N)=O)C(C)C)[C@@H](C)CC` [Compound 90] (H-[NMeY][Aib]EGTFISDYSI[Aib]LDR[Aib]AQ[Aib]K([AEEA-AEEA-γGlu-γGlu-C18 diacid])FVNWLLAQSPSSGAPPPS-NH2) as the compound, how does the solubility [1] read?
**A.** ≥ 60 mg/mL

**Q.** And the solubility [2]?
**A.** ≥ 15 mg/mL

**Q.** What does the source list for `CC[C@H](C)[C@H](NC(=O)[C@H](Cc1ccccc1)NC(=O)[C@@H](NC(=O)CNC(=O)[C@H](CCC(=O)O)NC(=O)C(C)(C)NC(=O)[C@H](Cc1ccc(O)cc1)NC)[C@@H](C)O)C(=O)N[C@@H](CO)C(=O)N[C@@H](CC(=O)O)C(=O)N[C@@H](Cc1ccc(O)cc1)C(=O)N[C@@H](CO)C(=O)N[C@H](C(=O)NC(C)(C)C(=O)N[C@@H](CC(C)C)C(=O)N[C@@H](CC(=O)O)C(=O)N[C@@H](CCCNC(=N)N)C(=O)NC(C)(C)C(=O)N[C@@H](C)C(=O)N[C@@H](CCC(N)=O)C(=O)NC(C)(C)C(=O)N[C@@H](CCCCNC(=O)COCCOCCNC(=O)CC[C@H](NC(=O)COCCOCCNC(=O)CC[C@H](NC(=O)CCCCCCCCCCCCCCCCC(=O)O)C(=O)O)C(=O)O)C(=O)N[C@@H](Cc1ccccc1)C(=O)N[C@H](C(=O)N[C@@H](CC(N)=O)C(=O)N[C@@H](Cc1c[nH]c2ccccc12)C(=O)N[C@@H](CC(C)C)C(=O)N[C@@H](CC(C)C)C(=O)N[C@@H](C)C(=O)N[C@@H](CCC(N)=O)C(=O)N[C@@H](CO)C(=O)N1CCC[C@H]1C(=O)N[C@@H](CO)C(=O)N[C@@H](CO)C(=O)NCC(=O)N[C@@H](C)C(=O)N1CCC[C@H]1C(=O)N1CCC[C@H]1C(=O)N1CCC[C@H]1C(=O)N[C@@H](CO)C(N)=O)C(C)C)[C@@H](C)CC` [Compound 92] (H-[NMeY][Aib]EGTFISDYSI[Aib]LDR[Aib]AQ[Aib]K([AEEA-γGlu-AEEA-γGlu-C18 diacid])FVNWLLAQSPSSGAPPPS-NH2)?
**A.** solubility [1]: ≥ 60 mg/mL; solubility [2]: ≥ 15 mg/mL
